Measurements: patent publication US20240207200A1, “USE OF PROPANDIOL MONONITRATE AND LIMONENE FOR REDUCING THE FORMATION OF METHANE EMANATING AND FOR IMPROVING THE DIGESTIBILITY” (DSM IP Assets B.V., priority 2021, published 2024)

Tested on: rumen liquor
Test: In vitro test for methane production, modified Hohenheim Forage value Test (HFT)
Assay type: cell-based
Conditions: TMR feed, 8 hours at 39° C., average of four to eight experiments
Protocol: In vitro test for methane production: A modified version of the “Hohenheim Forage value Test (HFT)” was used for testing the effect of specific compounds on the rumen functions mimicked by this in-vitro system.
Principle: Feed is gadded into a syringe with a composition of rumen liquor and an appropriate mixture of buffers. The solution is incubated at 39° C. After 8 hours the quantity (and composition) of gas phase produced is measured and put into a formula for conversion.
Sample weighing: The feed stuff (i.e. TMR (44% concentrate, 6% hay, 37% maize silage and 13% grass silage) is sieved to 1 mm and weighed exactly into 64 syringes. 4 of these syringes are the substrate controls, which display the gas production without the effect of the tested compounds. 4 other syringes are positive control (3-NOP, […]). When needed, 4 syringes contain a carrier control (if the test compounds need a carrier). The remaining syringes contain the test substances, by groups of 4 syringes, in the amounts as indicated in table 1.
• The components are mixed in a Woulff bottle in following order: • 711 ml water • 0.18 ml trace element solution • 355.5 ml buffer solution • 355.5 ml mass element solution • The completed solution is warmed up to 39° C. followed by the addition of 1.83 ml sodium salt solution and the addition of reduction solution at 36° C. • The rumen liquor is added, when the indicator turns colourless.
Extraction of the rumen liquor: 750 ml of rumen liquor are added to approximately 1,400 ml of medium solution under continued agitation and CO2-gassing.
Filling the syringes, incubation and determining gas volumes and VFA values: The diluted rumen fluid (24 ml) is added to the glass syringe. The syringes are then incubated for 8 hours at 39° C. under gentle agitation. After 8 hours, the volume of gas produced is measured, and the percentage of methane in the gas phase is determined by gas chromatography.
The food fermented was artificial TMR (44% concentrate, 6% hay, 37% maize silage and 13% grass silage). […]

For `C=C(C)C1CC=C(C)CC1` [DL, D-Limonene], the “Total methane change [% vs. control], found” value (DL 100 μM) was −1 % vs. control.
For `O=[N+]([O-])OCCCO` [PDMN, Propanediol mononitrate], the “Total methane change [% vs. control], found” value (PDMN 5 μM) was −27 % vs. control and the “Total methane change [% vs. control], found” value (PDMN 10 μM) was −98 % vs. control.
